24 compounds from patent publication US4927826A, “Cycloproylpropenamides useful as platelet activing factor (PAF) antagonists” (Hoffman-La Roche Inc., priority 1988, dated 1990) can be followed below.

In one assay the test system is dog platelets. Nature of the assay: Binding assay: inhibition of 3H-PAF binding to dog platelets. The following applies: 10 minutes at room temperature. As to the method:
The binding assay was done in 400 μl polyethylene microcentrifuge tubes (Beckman) containing 50 μl of an oil mixture of 2 parts Siliconol AR200 (Serva): 1 part Silicone Fluid (Arthur H. Thomas). Buffer, standards, or analogs (150 μl total volume) were added to the tubes. Radiolabelled ^3 H-PAF (50 μl) was then added to the tubes. The reaction was started by the addition of 50 μl of dog platelets (2×10^7 platelets). The tubes were capped, inverted several times to mix, and incubated for 10 minutes at room temperature. The platelets were separated from the incubation mixture by centrifuging 1 minute in a Beckman Microfuge B centrifuge. The tip of the microfuge tube was cut off, and the platelets were washed out of the tip with 200 μl of 50% methanol (Burdick and Jackson). Aquasol (NEN, 10 ml) was added and the radioactivity in the samples was determined using an LS 8100 Beckman liquid scintillation counter linked to a Techtran tape recorder. Data was processed through an in-house computer system. Alternatively, radioactivity was determined using a Searle Mark III liquid scintillation counter linked to a Iso-Data microprocessor.
(b) Preparation of Platelets
Blood was collected from anesthesized or unanesthesized dogs into 50 ml plastic centrifuge tubes containing 3.8% sodium citrate as the anticoagulant (1 volume of citrate/9 volumes of blood). The red cells were removed by centrifugation for 15 minutes at 600 rpm (100-125 g) at room temperature. An aliquot of the supernatant platelet rich plasma (PRP) was saved for cell counting and the remainder was acidified by pH 6.5 with 0.15M citric acid. The platelet pellet was obtained after a 10 minute centrifugation at 2000 rpm (1000 g) at room temperature. Washed platelets were prepared by resuspending the platelet pellet once with PBS containing 1 mM EDTA, centrifuging as noted, and then resuspending the platelets in 0.1% BSA-PBS. An aliquot of the washed platelets was counted. Platelets used for binding assays were diluted to 2×10^7 platelets/assay tube (4×10^8 platelets/ml). Platelet counting was done using a Royco Cell-Crit 921.

The subject of assay [1] is PAF-induced Bronchoconstriction. Nature of the assay: PAF Induced Bronchoconstriction Assay. The format is in vivo. The following applies: guinea pig, ± standard error of the mean; for Percent Inhib. of PAF-induced Bronchoconstriction, 1 mg/Kg i.v.: 1 minute pretreatment, PAF 1.0 μg/kg i.v.; for Percent Inhib. of PAF-induced Bronchoconstriction, 50 mg/Kg p.o.: 2-hour pretreatment, PAF i.v. As to the method: PAF Induced Bronchoconstriction Assay
Male animals (Hartlet Strain, 400-500 g) were anesthetized with urethane (2 g/kg, i.p.). Each animals' trachea was cannulated and the guinea pigs were respirated using a Harvard small animal rodent respirator (3.0 cc stroke volume, 40 breaths per min.). Tracheal pressure was recorded from a cannula inserted in the trachea and connected to a Statham Pressure Transducer.
The jugular vein was cannulated for administering compounds. Spontaneous breathing was arrested with succinylcholine (1.2 mg/kg, i.v.) administered 2 minutes prior to intravenous injection of platelet activating factor (PAF).
For, the intravenous testing, the guinea pig is given a 5-minute pretreatment with propranolol at a dose of 0.1 mg/kg intravenously. The test compound is administered with a 1 minute pretreatment prior to intravenous challenge with PAF. The animal is then challenged with a 1.0 μg/kg intravenous dose of PAF and the change is tracheal pressure is measured.
For the oral testing, the procedure includes a 2-hour pretreatment period with the test compound administered through an oral gavage tube. Propranolol or succinylcholine and PAF are administered intravenously, and the change in tracheal pressure measured.
The change is tracheal pressure is determined by subtracting the steady state baseline achieved after administration of succinylcholine from the peak bronchoconstriction seen after challenge with PAF. The mean is calculated for each test compound and compared to the mean of the control animals to give the percent inhibition of bronchoconstriction. The standard error is calculated as the standard error of the mean.

The structures appear in SMILES notation.

As for `O=C(CCC1CC1(c1ccccc1)c1ccccc1)NCCCCc1cccnc1` (racemic) [(R,S)-2,2-Diphenyl-N-[4-(3-pyridinyl)butyl]cyclopropanepropanamide], the IC50 with dog platelets amounted to 300 nM.

As to `S=C(/C=C/C1CC1(c1ccccc1)c1ccccc1)NCCCCc1cccnc1` (racemic) [(R,S)-(E)-3-(Diphenylcyclopropyl)-N-[4-(3-pyridinyl)butyl]-2-propenethioamide], the IC50 in the assay on dog platelets was found to be 55 nM.

In turn, `O=C(/C=C/C1CC1(c1ccccc1)c1ccccc1)NCCCCc1cccnc1` (racemic) [[R,S-(E)]-3-(2,2-Diphenylcyclopropyl)-N-[4-(3-pyridinyl)butyl]-2-propenamide] showed an IC50 with dog platelets of 150 nM. For the same compound, the “Percent Inhib. of PAF-induced Bronchoconstriction, 1 mg/Kg i.v.” value in assay [1] is on record as 48 ± 16%.

Take `COc1cccc(C2(c3cccc(OC)c3)CC2/C=C/C(=O)NCCCCc2cccnc2)c1` (racemic) [[R,S-(E)]-3-[2,2-bis(3-Methoxyphenyl)cyclopropyl]-N-[4-(3-pyridinyl)butyl]-2-propenamide]: the IC50 with dog platelets was 70 nM. Also, the “Percent Inhib. of PAF-induced Bronchoconstriction, 50 mg/Kg p.o.” value in assay [1] was 14 ± 1%.

Turning to `CC1(/C=C/C(=O)NCCCCc2cccnc2)CC1(c1ccc(F)cc1)c1ccc(F)cc1` (racemic) [[R,S-(E)]-3-[2,2-bis(4-Fluorophenyl)-1-methylcyclopropyl]-N-[4-(3-pyridinyl)butyl]-2-propenamide], the IC50 in the assay on dog platelets is 300 nM.

Take `O=C(/C=C/C1CC1(c1ccc(F)cc1)c1ccc(F)cc1)NCCCCc1cccnc1` (racemic) [[R,S-(E)]-3-[2,2-bis(4-Fluorophenyl)cyclopropyl]-N-[4-(3-pyridinyl)butyl]-2-propenamide]: the IC50 in the assay on dog platelets came out at 100 nM. Moreover, in assay [1], the “Percent Inhib. of PAF-induced Bronchoconstriction, 1 mg/Kg i.v.” value stood at 20 ± 8% and the “Percent Inhib. of PAF-induced Bronchoconstriction, 50 mg/Kg p.o.” value was found to be 82 ± 5%.

Compound `O=C(/C=C/C1CC1(c1cccc(C(F)(F)F)c1)c1cccc(C(F)(F)F)c1)NCCCCc1cccnc1` (racemic) [[R,S-(E)]-3-[2,2-bis[3-(trifluoromethyl)phenyl]cyclopropyl]-N-[4-(3-pyridinyl)butyl]-2-propenamide] displayed an IC50 with dog platelets of 350 nM.

Take `O=C(/C=C\C1CC1(c1ccccc1)c1ccccc1)NCCCCc1cccnc1` (racemic) [[R,S-(Z)]-3-(2,2-Diphenylcyclopropyl)-N-[4-(3-pyridinyl)butyl]-2-propenamide]: in the assay on dog platelets, the IC50 is 650 nM.

Take `O=C(/C=C\C1CC1(c1ccc(F)cc1)c1ccc(F)cc1)NCCCCc1cccnc1` (racemic) [[R,S-(Z)]-3-[2,2-bis(4-Fluorophenyl)cyclopropyl]-N-[4-[3-pyridinyl)butyl]-2-propenamide]: in the assay on dog platelets, the IC50 is 1000 nM. Besides, the “Percent Inhib. of PAF-induced Bronchoconstriction, 50 mg/Kg p.o.” value in assay [1] was determined as 78 ± 11%.

With `COc1cccc([C@]2(c3ccccc3)C[C@@H]2/C=C/C(=O)NCCCCc2cccnc2)c1` (relative stereo) [[1(R,S),2(R,S)-(E)]-3-[[2-(3-Methoxyphenyl)-2-phenyl]cyclopropyl]-N-[4-(3-pyridinyl)butyl]-2-propenamide], in the assay on dog platelets, the IC50 came to 8 nM.

Consider `COc1cccc([C@]2(c3ccccc3)C[C@@H]2/C=C\C(=O)NCCCCc2cccnc2)c1` (relative stereo) [[1(R,S),2(R,S)-(Z)]-3-[[2-(3-Methoxyphenyl)-2-phenyl]cyclopropyl]-N-[4-(3-pyridinyl)butyl]-2-propenamide], for which the IC50 in the assay with dog platelets was 300 nM. In addition, the “Percent Inhib. of PAF-induced Bronchoconstriction, 50 mg/Kg p.o.” value in assay [1] is recorded as 9 ± 14%.

Turning to `COc1cccc([C@@]2(c3ccccc3)C[C@@H]2/C=C/C(=O)NCCCCc2cccnc2)c1` (relative stereo) [[1(R,S),2(S,R)-(E)]-3-[[2-(3-Methoxyphenyl)-2-phenyl]cyclopropyl]-N-[4-(3-pyridinyl)butyl]-2-propenamide], the IC50 with dog platelets stood at 35 nM.

For the compound `COc1cccc([C@@]2(c3ccccc3)C[C@@H]2/C=C\C(=O)NCCCCc2cccnc2)c1` (relative stereo) [[1(R,S),2(S,R)-(Z)]-3-[[2-(3-Methoxyphenyl)-2-phenyl]cyclopropyl]-N-[4-(3-pyridinyl)butyl]-2-propenamide], the IC50 with dog platelets turned out to be 250 nM. Further, the “Percent Inhib. of PAF-induced Bronchoconstriction, 50 mg/Kg p.o.” value in assay [1] worked out at 15 ± 12%.

Consider `C[C@H](CCCc1cccnc1)NC(=O)/C=C/[C@@H]1CC1(c1cccc(F)c1)c1cccc(F)c1` (relative stereo) [[S,R*-(E)]-3-[2,2-bis(3-Fluorophenyl)cyclopropyl]-N-[1-methyl-4-(3-pyridinyl)butyl]-2-propenamide], for which, in the assay with dog platelets, the IC50 came to 130 nM.

In the assay with dog platelets, `C[C@H](CCCc1cccnc1)NC(=O)/C=C/[C@@H]1CC1(c1ccc(F)cc1)c1ccc(F)cc1` (relative stereo) [[S,R*-(E)]-3-[2,2-bis(4-Fluorophenyl)cyclopropyl]-N-[1-methyl-4-(3-pyridinyl)butyl]-2-propenamide] displayed an IC50 of 450 nM.

Turning to `COc1cccc(C2(c3cccc(OC)c3)CC2/C=C/C(=O)NC(C)CCCc2cccnc2)c1` (stereo in doubt) [(S,R*)-(E)-3-[2,2-bis(3-Methoxyphenyl)cyclopropyl]-N-[1-methyl-4-(3-pyridinyl)butyl]-2-propenamide], in the assay with dog platelets, the IC50 came to 450 nM.

`O=C(CC[C@@H]1CC1(c1ccccc1)c1ccccc1)NCCCCc1cccnc1` [(R)-2,2-Diphenyl-N-[4-(3-pyridinyl)butyl]cyclopropanepropanamide] came in with an IC50 in the assay on dog platelets of 600 nM.

On to `O=C(CC[C@H]1CC1(c1ccccc1)c1ccccc1)NCCCCc1cccnc1` [(S)-2,2-Diphenyl-N-[4-(3-pyridinyl)butyl]cyclopropanepropanamide], for which, in the assay with dog platelets, the IC50 is 200 nM.

`O=C(/C=C/[C@H]1CC1(c1ccccc1)c1ccccc1)NCCCCc1cccnc1` [[R-(E)]-3-(2,2-Diphenylcyclopropyl)-N-[4-(3-pyridinyl)butyl]-2-propenamide] gave an IC50 in the assay with dog platelets of 250 nM. Further, in assay [1], the “Percent Inhib. of PAF-induced Bronchoconstriction, 1 mg/Kg i.v.” value was determined as 71 ± 12% and the “Percent Inhib. of PAF-induced Bronchoconstriction, 50 mg/Kg p.o.” value was 57 ± 19%.

As for `O=C(/C=C/[C@H]1CC1(c1cccc(F)c1)c1cccc(F)c1)NCCCCc1cccnc1` [[R-(E)]-3-[2,2-bis(3-Fluorophenyl)cyclopropyl]-N-[4-(3-pyridinyl)butyl]-2-propenamide], the IC50 in the assay with dog platelets amounted to 200 nM. Also, in assay [1], the “Percent Inhib. of PAF-induced Bronchoconstriction, 1 mg/Kg i.v.” value worked out at 29 ± 3% and the “Percent Inhib. of PAF-induced Bronchoconstriction, 50 mg/Kg p.o.” value came to 10 ± 13%.

Regarding `C[C@]1(/C=C/C(=O)NCCCCc2cccnc2)CC1(c1ccc(F)cc1)c1ccc(F)cc1` [[R-(E)]-3-[2,2-bis(4-fluorophenyl)-1-methylcyclopropyl]-N-[4-(3-pyridinyl)butyl]-2-propenamide], in the assay on dog platelets, the IC50 was 500 nM.

The compound `O=C(/C=C\[C@H]1CC1(c1ccccc1)c1ccccc1)NCCCCc1cccnc1` [[R-(Z)]-3-(2,2-Diphenylcyclopropyl)-N-[4-(3-pyridinyl)butyl]-2-propenamide] returned an IC50 with dog platelets of 100 nM.

As for `C[C@@]1(/C=C/C(=O)NCCCCc2cccnc2)CC1(c1ccc(F)cc1)c1ccc(F)cc1` [[S-(E)]-3-[2,2-bis(4-Fluorophenyl)-1-methylcyclopropyl]-N-[4-(3-pyridinyl)butyl]-2-propenamide], the IC50 in the assay with dog platelets amounted to 200 nM.

With `O=C(/C=C\[C@@H]1CC1(c1ccccc1)c1ccccc1)NCCCCc1cccnc1` [[S-(Z)]-3-(2,2-Diphenylcyclopropyl)-N-[4-(3-pyridinyl)butyl]-2-propenamide], in the assay on dog platelets, the IC50 is 1000 nM.
